Data published in US12110287B2, “Heterocyclic derivatives as Nav1.7 and Nav1.8 blockers” (RaQualia Pharma Inc., priority 2018, dated 2024).

Assays:
human Nav1.5 channels = biological target: T1, human Nav1.5 channels (Homo sapiens, UniProt Q14524); assay: FRET assay (FDSS membrane potential); assay type: cell-based; details: HEK293 cells expressing human Nav1.5 channels, read-out: activity (IC50) against Nav1.5
T1 construct: expressed in transfected cells; host or cells: HEK293 cells
Description: (§1) This screen is used to determine the effects of compounds on human Nav1.8, and human Nav1.5 channels, utilizing the cell imaging technology by Hamamatsu Photonics's Functional Drug Screening System (FDSS). The changes of membrane potential are monitored with fluorescent membrane potential dye pair, DiSBAC2(3) and CC2-DMPE, using FRET technology.
(§2) HEK293 cells expressing human Nav1.8 channels or human Nav1.5 channels are grown in T225 flasks, in a 5% CO2 humidified incubator to about 80% confluence. […]
(§3) The data is analyzed and reported as normalized ratios of intensities measured in the 465 nm and 575 nm channels. The process of calculating these ratios is performed as follows: FR=(FI465 Max/FI575 Min)−(FI465B/FI575B) [Math.2] • “FR”=fluorescence ratio • “FI465B”=the mean of fluorescence intensity as baseline (before Na^+ ligand addition) at 465 nm • “FI575B”=the mean of fluorescence intensity as baseline (before Na^+ ligand addition) at 575 nm • “FI465Max”=maximum fluorescence intensity at 465 nm after Na^+ stimulation • “FI575Min”=minimum fluorescence intensity at 575 nm after Na^+ stimulation Inhibition (%)=100−(FR of each well)−(median FR in positive controls)/(median FR in negative controls)−(median FR in positive controls)×100 [Math.3] […]

human Nav1.8 channels = biological target: T2, human Nav1.8 channels (Homo sapiens, UniProt Q9Y5Y9); assay: FRET assay (FDSS membrane potential); assay type: cell-based; details: HEK293 cells expressing human Nav1.8 channels, read-out: IC50 against Nav1.8
T2 construct: expressed in transfected cells; host or cells: HEK293 cells
T2 sequence (Q9Y5Y9 whole entry): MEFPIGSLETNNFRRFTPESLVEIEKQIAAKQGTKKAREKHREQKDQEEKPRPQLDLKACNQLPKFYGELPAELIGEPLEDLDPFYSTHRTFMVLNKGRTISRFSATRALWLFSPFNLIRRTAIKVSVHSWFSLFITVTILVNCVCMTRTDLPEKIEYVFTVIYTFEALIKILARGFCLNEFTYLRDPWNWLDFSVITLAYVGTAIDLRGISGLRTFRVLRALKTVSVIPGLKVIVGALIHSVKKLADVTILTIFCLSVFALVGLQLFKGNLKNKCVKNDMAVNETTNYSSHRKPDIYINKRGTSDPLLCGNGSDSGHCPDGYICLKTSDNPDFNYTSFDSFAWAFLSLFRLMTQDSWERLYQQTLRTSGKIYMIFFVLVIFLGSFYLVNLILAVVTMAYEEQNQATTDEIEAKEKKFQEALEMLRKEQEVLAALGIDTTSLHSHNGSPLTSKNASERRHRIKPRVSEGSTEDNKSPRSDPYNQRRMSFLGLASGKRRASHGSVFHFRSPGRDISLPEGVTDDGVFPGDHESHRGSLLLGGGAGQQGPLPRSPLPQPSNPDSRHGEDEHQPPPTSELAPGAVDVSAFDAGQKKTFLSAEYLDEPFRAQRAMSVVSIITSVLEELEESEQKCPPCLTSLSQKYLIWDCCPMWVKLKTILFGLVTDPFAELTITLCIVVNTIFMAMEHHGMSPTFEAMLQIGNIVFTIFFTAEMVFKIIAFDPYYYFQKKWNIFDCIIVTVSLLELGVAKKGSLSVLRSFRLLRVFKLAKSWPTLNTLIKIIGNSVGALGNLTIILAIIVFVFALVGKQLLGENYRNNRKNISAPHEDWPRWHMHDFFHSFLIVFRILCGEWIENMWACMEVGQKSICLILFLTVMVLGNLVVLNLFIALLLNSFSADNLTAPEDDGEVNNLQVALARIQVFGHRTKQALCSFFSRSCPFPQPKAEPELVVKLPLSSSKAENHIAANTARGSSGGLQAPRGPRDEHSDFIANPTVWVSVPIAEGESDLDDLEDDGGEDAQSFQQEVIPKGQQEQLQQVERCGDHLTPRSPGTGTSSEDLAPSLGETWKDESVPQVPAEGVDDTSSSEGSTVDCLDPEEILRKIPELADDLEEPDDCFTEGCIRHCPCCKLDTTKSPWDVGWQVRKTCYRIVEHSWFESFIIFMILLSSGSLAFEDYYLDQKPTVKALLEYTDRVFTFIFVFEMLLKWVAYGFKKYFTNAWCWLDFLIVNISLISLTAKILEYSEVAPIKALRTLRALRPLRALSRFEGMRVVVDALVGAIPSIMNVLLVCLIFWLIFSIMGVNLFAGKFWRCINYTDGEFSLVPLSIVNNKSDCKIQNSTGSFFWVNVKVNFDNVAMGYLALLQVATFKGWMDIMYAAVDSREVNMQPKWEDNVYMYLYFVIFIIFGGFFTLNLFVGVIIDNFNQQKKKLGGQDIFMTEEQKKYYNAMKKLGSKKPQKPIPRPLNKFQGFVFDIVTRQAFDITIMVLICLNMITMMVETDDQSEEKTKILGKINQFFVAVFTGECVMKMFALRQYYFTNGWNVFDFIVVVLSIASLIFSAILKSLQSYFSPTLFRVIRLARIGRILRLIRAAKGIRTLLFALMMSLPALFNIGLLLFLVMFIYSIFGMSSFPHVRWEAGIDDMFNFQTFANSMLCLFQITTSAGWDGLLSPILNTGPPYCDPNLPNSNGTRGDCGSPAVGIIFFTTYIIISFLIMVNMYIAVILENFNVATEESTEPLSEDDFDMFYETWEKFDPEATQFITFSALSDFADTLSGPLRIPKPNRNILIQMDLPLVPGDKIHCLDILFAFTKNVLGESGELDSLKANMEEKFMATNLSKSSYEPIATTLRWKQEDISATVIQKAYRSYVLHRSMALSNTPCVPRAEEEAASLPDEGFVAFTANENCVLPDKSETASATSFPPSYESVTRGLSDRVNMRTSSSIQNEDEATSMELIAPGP
Description: as §1, §2, §3

T1 sequence (Q14524 whole entry): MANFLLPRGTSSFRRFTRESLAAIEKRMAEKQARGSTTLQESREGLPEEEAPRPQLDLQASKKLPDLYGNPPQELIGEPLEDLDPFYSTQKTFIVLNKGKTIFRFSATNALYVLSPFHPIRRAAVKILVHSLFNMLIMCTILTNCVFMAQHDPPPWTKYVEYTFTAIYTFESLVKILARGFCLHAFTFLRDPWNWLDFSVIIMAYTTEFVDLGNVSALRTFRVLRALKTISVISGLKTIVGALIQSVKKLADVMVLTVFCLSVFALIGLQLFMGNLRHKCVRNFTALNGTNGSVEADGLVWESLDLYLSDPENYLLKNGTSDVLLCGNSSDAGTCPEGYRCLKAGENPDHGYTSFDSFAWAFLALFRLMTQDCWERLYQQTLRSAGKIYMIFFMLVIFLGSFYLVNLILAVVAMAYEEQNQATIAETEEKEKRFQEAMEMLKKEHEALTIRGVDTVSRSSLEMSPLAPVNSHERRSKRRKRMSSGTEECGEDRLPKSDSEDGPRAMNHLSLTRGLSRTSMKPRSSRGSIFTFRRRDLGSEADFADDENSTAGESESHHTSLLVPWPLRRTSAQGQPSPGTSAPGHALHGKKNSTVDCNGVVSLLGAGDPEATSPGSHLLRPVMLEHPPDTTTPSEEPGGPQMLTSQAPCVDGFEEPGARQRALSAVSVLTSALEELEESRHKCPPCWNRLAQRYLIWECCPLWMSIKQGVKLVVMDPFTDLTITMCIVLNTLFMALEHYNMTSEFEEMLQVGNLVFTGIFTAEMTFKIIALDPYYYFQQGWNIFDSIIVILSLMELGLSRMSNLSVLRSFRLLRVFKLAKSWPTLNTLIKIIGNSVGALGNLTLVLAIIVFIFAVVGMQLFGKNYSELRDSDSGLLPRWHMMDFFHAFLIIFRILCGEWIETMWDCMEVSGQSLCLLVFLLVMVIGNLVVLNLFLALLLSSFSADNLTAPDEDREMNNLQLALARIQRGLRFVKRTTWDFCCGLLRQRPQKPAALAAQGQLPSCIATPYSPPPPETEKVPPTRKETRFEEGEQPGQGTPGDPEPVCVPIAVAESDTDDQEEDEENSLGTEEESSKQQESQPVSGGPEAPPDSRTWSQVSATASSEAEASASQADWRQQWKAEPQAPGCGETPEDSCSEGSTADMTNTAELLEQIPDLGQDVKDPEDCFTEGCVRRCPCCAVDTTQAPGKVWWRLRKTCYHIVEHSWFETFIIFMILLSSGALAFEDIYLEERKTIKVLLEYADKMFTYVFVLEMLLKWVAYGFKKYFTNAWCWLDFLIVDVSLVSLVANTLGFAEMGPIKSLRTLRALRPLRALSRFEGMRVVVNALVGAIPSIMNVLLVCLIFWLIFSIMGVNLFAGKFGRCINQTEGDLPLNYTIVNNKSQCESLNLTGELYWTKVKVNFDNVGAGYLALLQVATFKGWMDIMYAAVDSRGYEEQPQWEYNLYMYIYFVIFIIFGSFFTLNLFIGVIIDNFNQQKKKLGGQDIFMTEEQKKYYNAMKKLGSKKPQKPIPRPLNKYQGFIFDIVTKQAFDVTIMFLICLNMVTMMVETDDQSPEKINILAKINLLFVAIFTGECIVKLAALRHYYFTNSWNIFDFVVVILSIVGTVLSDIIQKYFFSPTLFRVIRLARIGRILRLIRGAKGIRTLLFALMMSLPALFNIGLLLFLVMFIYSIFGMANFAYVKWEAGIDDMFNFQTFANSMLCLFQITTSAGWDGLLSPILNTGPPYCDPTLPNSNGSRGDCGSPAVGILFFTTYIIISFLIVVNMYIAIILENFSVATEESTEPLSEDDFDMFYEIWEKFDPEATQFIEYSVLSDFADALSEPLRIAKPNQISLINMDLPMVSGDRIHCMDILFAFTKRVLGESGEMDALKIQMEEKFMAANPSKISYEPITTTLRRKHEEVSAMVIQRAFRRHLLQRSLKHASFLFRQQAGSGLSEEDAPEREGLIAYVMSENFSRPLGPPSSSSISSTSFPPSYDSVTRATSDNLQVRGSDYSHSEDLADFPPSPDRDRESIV

O=C(N[C@@H]1CCCN(c2ncc(C(F)(F)F)cc2Cl)C1)c1ccnc(NC(=O)C2CC2)c1 [Example 7]
IC50 (human Nav1.5 channels): > 30000 nM | IC50 (human Nav1.8 channels): 2000 nM
